The record followed here is PubChem BioAssay AID1259407 (Chemical Carcinogenesis Research Information System (CCRIS), 2018).

The series relates to CCRIS mutagenicity, Ames/micronucleus/aberration tests. The experiment in a line: CCRIS mutagenicity studies.
Setting [1] is: Test System: AMES SALMONELLA TYPHIMURIUM, Strain/Indicator: TA98, Metabolic Activation: NONE, Method: PREINCUBATION
[2] abbreviates: Test System: AMES SALMONELLA TYPHIMURIUM, Strain/Indicator: TA100, Metabolic Activation: NONE, Method: PREINCUBATION
Setting [3] is: Test System: AMES SALMONELLA TYPHIMURIUM, Strain/Indicator: TA100, Metabolic Activation: NONE, Method: STANDARD PLATE.
The mark [4] stands for this setting: Test System: AMES SALMONELLA TYPHIMURIUM, Strain/Indicator: TA1535, Metabolic Activation: NONE, Method: PREINCUBATION

Activity calls are given as the source filed them. The rule behind the calls is not given here.

Regarding `NNc1ccccc1`, the mutagenic call runs as follows: (End Point: IN VITRO CHROMOSOMAL ABERRATIONS, Test System: CHL CELLS, Metabolic Activation: NONE) “active; positive (structural changes)”; (End Point: IN VITRO CHROMOSOMAL ABERRATIONS, Test System: CHL CELLS, Metabolic Activation: RAT, LIVER, S-9, SODIUM PHENOBARBITAL AND 5,6-BENZOFLAVONE) “active; positive (structural changes); authors report equivocal results for ploidy chang”; under setting [1], “active; positive”; (Test System: AMES SALMONELLA TYPHIMURIUM, Strain/Indicator: TA98, Metabolic Activation: RAT LIVER S-9, PHENOBARBITAL AND BETA-NAPHTHOFLAVONE, Method: PREINCUBATION) “active; positive”; under setting [2], “inactive; negative”; under setting [3], “active; positive”. Further, the mutagenic call runs as follows: (Test System: AMES SALMONELLA TYPHIMURIUM, Strain/Indicator: TA100, Metabolic Activation: RAT KIDNEY, MICROSOMES, Method: STANDARD PLATE) “active; positive”; (Test System: AMES SALMONELLA TYPHIMURIUM, Strain/Indicator: TA100, Metabolic Activation: RAT LIVER S-9, PHENOBARBITAL AND BETA-NAPHTHOFLAVONE, Method: PREINCUBATION) “inactive; negative”; (Test System: AMES SALMONELLA TYPHIMURIUM, Strain/Indicator: TA1530, Metabolic Activation: NONE, Method: STANDARD PLATE) “active; positive”; under setting [4], “inactive; negative”; (Test System: AMES SALMONELLA TYPHIMURIUM, Strain/Indicator: TA1535, Metabolic Activation: RAT LIVER S-9, PHENOBARBITAL AND BETA-NAPHTHOFLAVONE, Method: PREINCUBATION) “inactive; negative”; (Test System: AMES SALMONELLA TYPHIMURIUM, Strain/Indicator: TA1535, Metabolic Activation: RAT, LIVER, S-9, AROCLOR 1254, Method: PREINCUBATION) “inactive; negative”. Further, the mutagenic call is, setting by setting: (Test System: AMES SALMONELLA TYPHIMURIUM, Strain/Indicator: TA1537, Metabolic Activation: NONE, Method: PREINCUBATION) “active; positive”; (Test System: AMES SALMONELLA TYPHIMURIUM, Strain/Indicator: TA1537, Metabolic Activation: RAT LIVER S-9, PHENOBARBITAL AND BETA-NAPHTHOFLAVONE, Method: PREINCUBATION) “active; positive”; (Test System: AMES SALMONELLA TYPHIMURIUM, Strain/Indicator: TA1537, Metabolic Activation: RAT, LIVER, S-9, AROCLOR 1254, Method: PREINCUBATION) “active; positive”; (Test System: AMES SALMONELLA TYPHIMURIUM, Strain/Indicator: TA2638, Metabolic Activation: NONE, Method: STANDARD PLATE) “active; positive”; (Test System: E. COLI, Strain/Indicator: WP2 (PKM101), Metabolic Activation: NONE, Method: STANDARD PLATE) “active; positive”; (Test System: E. COLI, Strain/Indicator: WP2 UVRA (PKM101), Metabolic Activation: NONE, Method: STANDARD PLATE) “active; positive”. The mutagenic call (Test System: E.COLI, Strain/Indicator: WP2UVRA, Metabolic Activation: NONE, Method: PREINCUBATION) was “active; positive” and the mutagenic call (Test System: E.COLI, Strain/Indicator: WP2UVRA, Metabolic Activation: RAT LIVER S-9, PHENOBARBITAL AND BETA-NAPHTHOFLAVONE, Method: PREINCUBATION) was “active; positive”.
On to `CC(=O)c1cccc(N=[N+]([O-])c2ccc(N)c(C(C)=O)c2C)c1C`, for which the mutagenic call reads like this: under setting [1], “inactive; negative”; (Test System: AMES SALMONELLA TYPHIMURIUM, Strain/Indicator: TA98, Metabolic Activation: RAT, LIVER, S-9, PHENOBARBITAL AND 5,6-BENZOFLAVONE, Method: PREINCUBATION) “inactive; negative”; under setting [2], “inactive; negative”; (Test System: AMES SALMONELLA TYPHIMURIUM, Strain/Indicator: TA100, Metabolic Activation: RAT, LIVER, S-9, PHENOBARBITAL AND 5,6-BENZOFLAVONE, Method: PREINCUBATION) “inactive; negative”.
`Cc1ccc2ccc3c(ccc4c5cccc(C)c5ccc43)c2c1`: the mutagenic call runs as follows: (Test System: AMES SALMONELLA TYPHIMURIUM, Strain/Indicator: TA97, Metabolic Activation: RAT, LIVER, S-9, AROCLOR 1254, Method: STANDARD PLATE) “inactive; negative”; (Test System: AMES SALMONELLA TYPHIMURIUM, Strain/Indicator: TA98, Metabolic Activation: RAT, LIVER, S-9, AROCLOR 1254, Method: STANDARD PLATE) “inactive; negative”; (Test System: AMES SALMONELLA TYPHIMURIUM, Strain/Indicator: TA100, Metabolic Activation: RAT, LIVER, S-9, AROCLOR 1254, Method: STANDARD PLATE) “inactive; negative”; (Test System: AMES SALMONELLA TYPHIMURIUM, Strain/Indicator: TA102, Metabolic Activation: RAT, LIVER, S-9, AROCLOR 1254, Method: STANDARD PLATE) “inactive; negative”; (Test System: AMES SALMONELLA TYPHIMURIUM, Strain/Indicator: TA104, Metabolic Activation: RAT, LIVER, S-9, AROCLOR 1254, Method: STANDARD PLATE) “inactive; negative”; (Test System: AMES SALMONELLA TYPHIMURIUM, Strain/Indicator: TA1537, Metabolic Activation: RAT, LIVER, S-9, AROCLOR 1254, Method: STANDARD PLATE) “inactive; negative”.
For the molecule `C=C1[C@@H]2CC[C@H]3[C@]4(C)CCC[C@@](C)(C(=O)O)[C@H]4CC[C@]3(C2)[C@H]1O`, under “Test System: AMES SALMONELLA TYPHIMURIUM, Strain/Indicator: TM677, Metabolic Activation: RAT, LIVER, S-9, AROCLOR 1254, Method: PREINCUBATION”, the mutagenic call was “inactive; negative”.
Regarding `CC/C=C1\OC(=O)c2ccccc21`, the mutagenic call is “inactive; negative” (Test System: AMES SALMONELLA TYPHIMURIUM, Strain/Indicator: TA97, Metabolic Activation: HAMSTER, LIVER, S-9, AROCLOR 1254 (10%), Method: PREINCUBATION); “inactive; negative” (Test System: AMES SALMONELLA TYPHIMURIUM, Strain/Indicator: TA97, Metabolic Activation: NONE, Method: PREINCUBATION); “inactive; negative” (Test System: AMES SALMONELLA TYPHIMURIUM, Strain/Indicator: TA97, Metabolic Activation: RAT, LIVER, S-9, AROCLOR 1254 (10%), Method: PREINCUBATION); “inactive; negative” (Test System: AMES SALMONELLA TYPHIMURIUM, Strain/Indicator: TA98, Metabolic Activation: HAMSTER, LIVER, S-9, AROCLOR 1254 (10%), Method: PREINCUBATION); “inactive; negative” under setting [1]; “inactive; negative” (Test System: AMES SALMONELLA TYPHIMURIUM, Strain/Indicator: TA98, Metabolic Activation: RAT, LIVER, S-9, AROCLOR 1254 (10%), Method: PREINCUBATION). In addition, the mutagenic call was “inactive; negative” (Test System: AMES SALMONELLA TYPHIMURIUM, Strain/Indicator: TA100, Metabolic Activation: HAMSTER, LIVER, S-9, AROCLOR 1254 (10%), Method: PREINCUBATION); “inactive; negative” under setting [2]; “active; positive” (Test System: AMES SALMONELLA TYPHIMURIUM, Strain/Indicator: TA100, Metabolic Activation: RAT, LIVER, S-9, AROCLOR 1254 (10%), Method: PREINCUBATION); “inactive; negative” (Test System: AMES SALMONELLA TYPHIMURIUM, Strain/Indicator: TA1535, Metabolic Activation: HAMSTER, LIVER, S-9, AROCLOR 1254 (10%), Method: PREINCUBATION); “inactive; negative” under setting [4]; “inactive; negative” (Test System: AMES SALMONELLA TYPHIMURIUM, Strain/Indicator: TA1535, Metabolic Activation: RAT, LIVER, S-9, AROCLOR 1254 (10%), Method: PREINCUBATION).
Regarding `Cc1c2ccccc2cc2ccc3c(c12)C=CC(=O)C3=O`, the mutagenic call was “inactive; negative” (Test System: AMES SALMONELLA TYPHIMURIUM, Strain/Indicator: TA97A, Metabolic Activation: NONE, Method: PREINCUBATION); “active; positive” under setting [1]; “inactive; negative” under setting [2]; “inactive; negative” (Test System: AMES SALMONELLA TYPHIMURIUM, Strain/Indicator: TA102, Metabolic Activation: NONE, Method: PREINCUBATION); “inactive; negative” (Test System: AMES SALMONELLA TYPHIMURIUM, Strain/Indicator: TA104, Metabolic Activation: NONE, Method: PREINCUBATION).
On to `[N-]=[N+]=NCCC(c1ccccc1)c1ccccc1`, for which the mutagenic call (Test System: AMES SALMONELLA TYPHIMURIUM, Strain/Indicator: TA100, Metabolic Activation: RAT, LIVER, S-9, PCB, Method: PREINCUBATION) was “active; positive”.
Consider `Brc1ccc(CN2[C@@H]3c4ccccc4-c4ccccc4[C@@H]32)cc1` (stereo not given in full), for which, under setting [3], the mutagenic call is “active; positive”.
